Counter-ions that a name gives are not always drawn.
What was measured:
KPL-4 cells = assay: Tumor cell proliferation assay (CellTiter-Glo); assay type: cell-based; conditions: KPL4; 72 h drug exposure
Protocol: Compounds were tested in a cell-based assay that measures the capacity of the compounds to inhibit tumour cell proliferation following a 72 h drug exposure. Cell viability is determined using CellTiter-Glow® (CTG, Promega, cat# G757112/3). The CellTiter-Glo® Luminescent Cell Viability Assay is a homogeneous method to determine the number of viable cells in culture. Detection is based on using the luciferase reaction to measure the amount of ATP from viable cells. The amount of ATP in cells correlates with cell viability. Within minutes after a loss of membrane integrity, cells lose the ability to synthesize ATP, and endogenous ATPases destroy any remaining ATP; thus the levels of ATP fall precipitously.
Cells were plated at 3000-5000 cells/well (depending on the cell lines) in 90 μL growth medium on MTPs (Corning; #3603, black plate, clear flat bottom). For each cell line assayed, cells were plated onto a separate plate for determination of […] at t=0 hour and t=72 hour time points. Following overnight incubation at 37° C., chemiluminescence values for the t=0 samples were determined after adding 10 μl medium and 100 μl CTG solution according to manufacture protocol. Plates for the t=72 hour time points were treated with compounds diluted into growth medium at ten times final concentration added in 10 μL to the cell culture plate. Cells were then incubated for 72 hours at 37° C. Chemiluminescence values for the t=72 hour samples were determined. For data analysis, briefly, data from 24 h plate where used to reflect 100% inhibition of growth (“Ci”) and DMSO control for uninhibited growth (“C0”) and analyzed using MTS software package for IC50 and Hill coefficient. Experiments were controlled using a reference compound as standard.

[1] = biological target: His-tagged human recombinant kinase full-length Akt2 (Homo sapiens (Human), UniProt P31751); assay: Akt2 kinase assay (TR-FRET); assay type: biochemical; conditions: 10 μM ATP; median
From the text: Akt2 inhibitory activity of compounds of the present invention was quantified employing the Akt2 TR-FRET assay as described in the following paragraphs.
(§1) His-tagged human recombinant kinase full-length Akt2 expressed in insect cells and activated by PDK1 was purchased form Invitrogen (part number PV 3975). As substrate for the kinase reaction the biotinylated peptide biotin-Ahx-[…] (C-terminus in amide form) was used which can be purchased e.g. from the company Biosynthan GmbH (Berlin-Buch, Germany).
(§2) For the assay 50 nl of a 100 fold concentrated solution of the test compound in DMSO was pipetted into a black low volume 384 well microtiter plate (Greiner Bio-One, Frickenhausen, Germany), 2 μl of a solution of Akt2 in assay buffer [50 mM TRIS/HCl pH 7.5, 5 mM MgCl2, 1 mM dithiothreitol, 0.02% (v/v) Triton X-100 (Sigma)] were added and the mixture was incubated for 15 min at 22° C. to allow pre-binding of the test compounds to the enzyme before the start of the kinase reaction. Then the kinase reaction was started by the addition of 3 μl of a solution of adenosine-tri-phosphate (ATP, 16.7 μM=>final conc. in the 5 μl assay volume is 10 μM) and substrate (1.67 μM=>final conc. in the 5 μl assay volume is 1 μM) in assay buffer and the resulting mixture was incubated for a reaction time of 60 min at 22° C. The concentration of Akt2 in the assay was adjusted depending of the activity of the enzyme lot and was chosen appropriate to have the assay in the linear range, typical enzyme concentrations were in the range of about 0.2 ng/μl (final conc. in the 5 μl assay volume).
(§3) The reaction was stopped by the addition of 5 μl of a solution of HTRF detection reagents (200 nM streptavidine-XL665 [Cisbio] and 1.5 nM anti-phosho-Serine antibody [Millipore, cat. #35-001] and 0.75 nM LANCE Eu-W 1024 labeled anti-mouse IgG antibody [Perkin Elmer]) in an aqueous EDTA-solution (100 mM EDTA, 0.1%/w/v\ bovine serum albumin in 50 mM HEPES/NaOH pH 7.5).
(§4) The resulting mixture was incubated 1 h at 22° C. to allow the binding of the biotinylated phosphorylated peptide to the streptavidine-XL665 and the antibodies. Subsequently the amount of phosphorylated substrate was evaluated by measurement of the resonance energy transfer from the anti-mouse-IgG-Eu-Chelate to the streptavidine-XL665. Therefore, the fluorescence emissions at 620 nm and 665 nm after excitation at 350 nm was measured in a TR-FRET reader, e.g. a Rubystar (BMG Labtechnologies, Offenburg, Germany) or a Viewlux (Perkin-Elmer). The ratio of the emissions at 665 nm and at […] was taken as the measure for the amount of phosphorylated substrate. The data were normalised (enzyme reaction without inhibitor=0% inhibition, all other assay components but no enzyme=100% inhibition).

[2] = biological target: His-tagged human recombinant kinase full-length Akt1 (Homo sapiens (Human), UniProt P31749); assay: Akt1 kinase assay (TR-FRET); assay type: biochemical; conditions: 10 μM ATP; median
From the text: as §1, with “Akt1 inhibitory activity of compounds of the present invention was quantified employing the Akt1 TR-FRET assay as described in the following paragraphs. His-tagged” for “His-tagged”, “Akt1” for “Akt2”, “cells” for “cells and activated by PDK1”, “3599).” for “3975).”
as §2, with “Akt1” for “Akt2”, “0.05” for “0.2”
as §3, with “0.1% (w/v)” for “0.1%/w/v\”
as §4, with “HTRF” for “TR-FRET”

[3] = tested on: phospho-AKT at S473 in KPL4 breast tumour cell line; assay: Cellular p-AKT1/2/3-S473 assay; assay type: cell-based; conditions: KPL4 cells, 2 hours treatment; median; read-out: pAKT-S743 median IC50
Protocol: The molecular mechanism of action was investigated in a set of experiments to assess the inhibition of the PI3K-AKT-mTOR pathway in responsive cell lines such as KPL4 breast tumour cell line (PIK3CAH1047R, HER2O/E and hormone independent). The phospho-substrates of PI3K-AKT-mTOR axis were used as the read-outs to reflect pathway inhibition. Cells were seeded at 60-80% confluency per well in 96-well cell culture plates. After overnight incubation at 37° C. 5% CO2, cells were treated with compounds and vehicle at 37° C. for 2 hours. […] All measurements where at least done in duplicates and confirmed by independent repetition.
Alternatively pAKT-S473 was measured using the “Akt Duplex” of the MULTI-SPOT® Assay System (Fa. Meso Scale Discovery, Cat# N41100B-1) following manufacturers instructions. Each assay used 20 μg of protein extract and measured total AKT and p-AKT content simultaneously in one well. All measurements where at least done in duplicates and confirmed by independent repetition. Values for P-AKT are expressed as percentage of P-AKT level compared to total-AKT content of the extracts.

Chain of His-tagged human recombinant kinase full-length Akt2 (P31751 whole entry): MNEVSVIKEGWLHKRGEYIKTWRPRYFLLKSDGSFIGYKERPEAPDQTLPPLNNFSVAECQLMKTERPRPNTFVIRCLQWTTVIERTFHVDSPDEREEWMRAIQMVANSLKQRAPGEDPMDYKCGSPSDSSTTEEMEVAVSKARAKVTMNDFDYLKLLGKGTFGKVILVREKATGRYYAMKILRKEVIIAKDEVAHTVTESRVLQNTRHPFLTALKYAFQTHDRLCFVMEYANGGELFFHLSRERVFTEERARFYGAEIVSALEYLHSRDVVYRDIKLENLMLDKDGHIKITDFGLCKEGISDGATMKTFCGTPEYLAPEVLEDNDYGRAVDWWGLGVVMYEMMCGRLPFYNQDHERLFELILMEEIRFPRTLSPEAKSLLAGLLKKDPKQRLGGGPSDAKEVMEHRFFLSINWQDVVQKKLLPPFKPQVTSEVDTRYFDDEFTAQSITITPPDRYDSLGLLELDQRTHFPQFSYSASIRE
Chain of His-tagged human recombinant kinase full-length Akt1 (P31749 whole entry): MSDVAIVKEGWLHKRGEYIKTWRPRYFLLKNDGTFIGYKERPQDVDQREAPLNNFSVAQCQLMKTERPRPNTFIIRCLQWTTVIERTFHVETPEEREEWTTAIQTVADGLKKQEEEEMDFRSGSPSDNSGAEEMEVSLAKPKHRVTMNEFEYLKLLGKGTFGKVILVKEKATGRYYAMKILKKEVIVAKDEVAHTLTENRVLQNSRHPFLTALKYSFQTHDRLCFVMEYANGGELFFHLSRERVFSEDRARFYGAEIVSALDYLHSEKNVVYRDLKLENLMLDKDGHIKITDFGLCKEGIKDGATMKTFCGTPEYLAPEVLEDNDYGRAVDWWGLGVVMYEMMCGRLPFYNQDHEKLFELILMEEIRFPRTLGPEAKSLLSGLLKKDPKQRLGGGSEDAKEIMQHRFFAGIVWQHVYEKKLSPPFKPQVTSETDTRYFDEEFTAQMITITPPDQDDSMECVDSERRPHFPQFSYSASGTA

SMILES | IC50 (KPL-4 cells) | IC50 [1] | IC50 [2] | IC50 [3]
Cc1cn2nc(-c3ccc(C4(N)CCC4)cc3)c(-c3ccccc3)cc2n1 [Example 1-1, 1-[4-(2-Methyl-7-phenyl-imidazo[1,2-b]pyridazin-6-yl)-phenyl]-cyclobutylamine hydrochloride] | 10000 nM | 20000 nM | 17300 nM | 10000 nM
NC1(c2ccc(-c3nn4c(Br)cnc4cc3-c3ccccc3)cc2)CCC1 [Example 4-8, 1-[4-(3-Bromo-7-phenyl-imidazo[1,2-b]pyridazin-6-yl)-phenyl]-cyclobutylamine hydrochloride] | 2380 nM | 264 nM | 74 nM | 110 nM
NC1(c2ccc(-c3nn4c(-c5cn[nH]c5)cnc4cc3-c3ccccc3)cc2)CCC1 [Example 4-12, 1-{4-[7-Phenyl-3-(1H-pyrazol-4-yl)-imidazo[1,2-b]pyridazin-6-yl]-phenyl}-cyclobutylamine] | 550 nM | 67 nM | 9 nM | 10 nM
NC1(c2ccc(-c3nn4c(-c5ccc(O)nc5)cnc4cc3-c3ccccc3)cc2)CCC1 [Example 4-13, 5-{6-[4-(1-Amino-cyclobutyl)-phenyl]-7-phenyl-imidazo[1,2-b]pyridazin-3-yl}-pyridin-2-ol] | 3360 nM | 431 nM | 146 nM | 160 nM
COC(=O)c1ccc(-c2cnc3cc(-c4ccccc4)c(-c4ccc(C5(N)CCC5)cc4)nn23)cn1 [Example 4-14, 5-{6-[4-(1-Amino-cyclobutyl)-phenyl]-7-phenyl-imidazo[1,2-b]pyridazin-3-yl}-pyridine-2-carboxylic acid methyl ester] | 6020 nM | 115 nM | 19 nM | 920 nM
NC1(c2ccc(-c3nn4c(-c5ccc(F)c(CO)c5)cnc4cc3-c3ccccc3)cc2)CCC1 [Example 4-9, (5-{6-[4-(1-Amino-cyclobutyl)-phenyl]-7-phenyl-imidazo[1,2-b]pyridazin-3-yl}-2-fluorophenyl)-methanol hydrochloride] | 1560 nM | 92 nM | 9 nM | 40 nM

More lines, now with the values ahead:

IC50 (KPL-4 cells) | IC50 [1] | IC50 [2] | IC50 [3] | SMILES
2420 nM | 222 nM | 38 nM | 50 nM | NC(=O)/C=C/c1cnc2cc(-c3ccccc3)c(-c3ccc(C4(N)CCC4)cc3)nn12 [Example 8-0, (E)-3-{6-[4-(1-Amino-cyclobutyl)-phenyl]-7-phenyl-imidazo[1,2-b]pyridazin-3-yl}-acrylamide]
1890 nM | 41 nM | 68 nM | 410 nM | NC1(c2ccc(-c3nn4c(-c5ccc(F)cc5)c(Br)nc4cc3-c3ccccc3)cc2)CCC1 [Example 6-0, 1-{4-[2-Bromo-3-(4-fluorophenyl)-7-phenyl-imidazo[1,2-b]pyridazin-6-yl]-phenyl}-cyclobutylamine]
9220 nM | 17200 nM | 14900 nM | 10000 nM | Cc1cc(-c2c(C)nc3cc(-c4ccccc4)c(-c4ccc(C5(N)CCC5)cc4)nn23)[nH]n1 [Example 5-6, 1-{4-[2-Methyl-7-phenyl-3-(5-methyl-2H-pyrazol-3-yl)-imidazo[1,2-b]pyridazin-6-yl]-phenyl}-cyclobutylamine]
2380 nM | 4820 nM | 12100 nM | 10000 nM | Cc1nc2cc(-c3ccccc3)c(-c3ccc(C4(N)CCC4)cc3)nn2c1-c1ccc(C(N)=O)cc1 [Example 5-4, 4-{6-[4-(1-Amino-cyclobutyl)-phenyl]-2-methyl-7-phenyl-imidazol[1,2-b]pyridazin-3-yl}-benzamide]
2110 nM | 16700 nM | 10100 nM | 10000 nM | Cc1nc2cc(-c3ccccc3)c(-c3ccc(C4(N)CCC4)cc3)nn2c1-c1ccc(F)c(CO)c1 [Example 5-1, (5-{6-[4-(1-Amino-cyclobutyl)-phenyl]-2-methyl-7-phenyl-imidazo[1,2-b]pyridazin-3-yl}-2-fluorophenyl)-methanol]

— patent publication US8987273B2, “Substituted imidazo[1,2-B]pyridazines” (Bayer Intellectual Property GmbH, priority 2010, dated 2015)
